This note sets out measurements from PMC7315737, “The putative Escherichia coli dehydrogenase YjhC metabolises two dehydrated forms of N-acetylneuraminate produced by some sialidases” (Bioscience Reports, 2020).

The assay concerns the target T1, YjhC (Escherichia coli, UniProt P39353).
T1 construct: gene nanY; full-length ORF from ASKA library in pCA24N, N-terminal His6-tag kept, expressed in E. coli BL21
Nature of the assay: LC-MS of ligand co-purified with the enzyme. It is filed as binding. Conditions: co-purified after metal affinity and gel filtration. In general terms: In gel filtration, larger molecules generally elute earlier.

T1 sequence (P39353 whole entry): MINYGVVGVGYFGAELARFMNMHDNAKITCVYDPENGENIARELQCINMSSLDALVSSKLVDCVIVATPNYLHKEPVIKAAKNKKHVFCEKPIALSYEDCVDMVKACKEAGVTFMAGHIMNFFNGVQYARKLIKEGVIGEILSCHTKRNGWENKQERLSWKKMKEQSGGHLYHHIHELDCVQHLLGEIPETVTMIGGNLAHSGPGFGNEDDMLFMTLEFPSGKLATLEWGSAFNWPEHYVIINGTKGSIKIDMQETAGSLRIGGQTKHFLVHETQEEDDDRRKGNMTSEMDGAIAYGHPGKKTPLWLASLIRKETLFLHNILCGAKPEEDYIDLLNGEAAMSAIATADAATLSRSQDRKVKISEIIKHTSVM

With `NC(=O)C1=CN([C@@H]2O[C@H](COP(=O)(O)OP(=O)(O)OC[C@H]3O[C@@H](n4cnc5c(N)ncnc54)[C@H](O)[C@@H]3O)[C@@H](O)[C@H]2O)C=CC1` [NADH], the co-purified ligand detected entry is “presence of small amounts of NAD^+ and NADH”.
